Like-named read-outs stand apart in the source and are kept apart here.

Drawing on patent US12091417B2, “7-ethyl-10-hydroxycamptothecin derivatives for use in the treatment of cancer” (Narodowy Instytut Lekow, priority 2020, dated 2024), this text covers IC50 for ten compounds.

One test has as its system MCF7. As to the kind of experiment: MTT cell proliferation test, cytotoxicity on MCF7 breast cancer cells. Type of test: cell-based, human. The following applies: MCF7, 72 hrs incubation, read-out: IC50 μmole/L, after 72 hrs incubation time. As to the method:
(§1) IC50 Determination Using the Photometric Assay.
(§2) All cell lines, MCF7, HT29, HL60, A549 and CRL1790 were purchased from ATCC (American Cell Culture Collection). As exemplified the MCF-7 human breast cancer, the cell line was grown in Iscove's Modified Dulbecco's Medium, supplemented with 10% heat-inactivated fetal bovine serum, penicillin (100 Ul/mL), streptomycin (100 μg/mL), amphotericin (250 ng/mL), L-glutamine (2 mM) and 1% non-essential amino acids solution. The culture of HL-60 human leukemia cells was conducted in Iscove's Modified Dulbecco's Medium, supplemented with 20% heat-inactivated fetal bovine serum, penicillin (100 Ul/mL), streptomycin (100 μg/mL), amphotericin (250 ng/mL), L-glutamine (2 mM) and 1% non-essential amino acids solution.
(§3) The cells were grown at 37° C. in a humidified atmosphere containing 5% CO2. After 80% confluence was reached, the adherent MCF7, HL-60, cells were detached with a 0.25% trypsin solution and seeded in 96-well plates at a density of 5×10^4 cells/mL, 5×10^5 cells/mL, respectively.
(§4) After overnight incubation, the increasing concentrations (0.1-20 μM) of studied compounds dissolved in DMSO were added to the wells. Pure DMSO diluted at the ratio of 1:1000 (v/v) in growth media was added to control wells. After 24, 48 or 72 hours of incubation the MTT-cell proliferation test was performed.
(§5) The test exploits the ability of living cells mitochondrial dehydrogenases to convert water-soluble 3-(4,5-dimethylthiazol-2-yl)-2,5-diphenyltetrazolium bromide (MTT) to non-soluble formazan. Briefly, after 3 hours incubation of cells with MTT solution the absorbance of formazan dissolved in isopropyl alcohol was measured in a Power Wavex microplate spectrophotometer (BioTek Instruments) at 570 nm.
(§6) In order to compare the cytotoxicity of studied compounds the IC50 values (the concentrations which induce the cell viability decreased to 50% of the control) were determined. The normalized MTT data were fitted to log(inhibitor) vs. response-variable slope model (R^2>0.9) described by the Equation 1 using Prism 5 ver 5.03 (GraphPad Software, Inc):
(§7) [formula] where: V—cell viability, c—compound concentration, h—Hill coefficient.
(§8) As a result log IC50 with the standard error were calculated.

For the next test, the system named is HT29. As to the kind of experiment: MTT cell proliferation test, cytotoxicity on HT29 colon cancer cells. Type of test: cell-based. The following applies: HT29, 72 hrs incubation, read-out: IC50 μmole/L, after 72 hrs incubation time. As to the method:
as §1, §2, §3, §4, §5, §6, §7, §8
In general terms: Tetrazolium assays rely on reduction of a dye to a coloured formazan, in cell work by metabolically active cells.

Another test concerns HL60. Kind of test: MTT cell proliferation test, cytotoxicity on HL60 leukemia cells. Type of test: cell-based, human. How it is done: as §1, §2, §3, §4, §5, §6, §7, §8
A further test relates to A549. As to the kind of experiment: MTT cell proliferation test, cytotoxicity on A549 lung cancer cells. The following applies: A549, 72 hrs incubation, read-out: IC50 μmole/L, after 72 hrs incubation time. Type of test: cell-based. How it is done:
as §1, §2, §3, §4, §5, §6, §7, §8

For a further test, the system named is CRL1790. Kind of test: MTT cell proliferation test, cytotoxicity on CRL1790 normal cells. Type of test: cell-based. Conditions: CRL1790, 72 hrs incubation, read-out: IC50 μmole/L, after 72 hrs incubation time. How it is done: as §1, §2, §3
[…] Pure DMSO diluted at the ratio of 1:1000 (v/v) in growth media was added to control wells. After 24, 48 or 72 hours of incubation the MTT-cell proliferation test was performed.
as §5
In order to compare the cytotoxicity of studied compounds the IC50 values (the concentrations which induce the cell viability decreased to 50% of the control) were determined. The normalized MTT data were fitted to log(inhibitor) vs. response-variable slope model (R^2>0.9) described by the Equation 1 using Prism 5 ver 5.03 (GraphPad Software, Inc): […]
as §8

Where [1] appears, read: Blood, HL60, 72 hrs incubation, MTT, read-out: IC50 μmole/L, after 72 hrs incubation time.

With `CCc1c2c(nc3ccc(O)cc13)-c1cc3c(c(=O)n1[C@@H]2CN1CCCC1)COC(=O)C3(O)CC` (stereo partly drawn) [Compound 2, 5-(S)—(N-pyrrolidinyl)methyl-7-ethyl-10-hydroxycamptothecin], the IC50 with MCF7 was 0.96 µmol/L; with HT29, 0.49 µmol/L; in the test on HL60 (setting [1]), 0.007 µmol/L; in the test with A549, 0.272 µmol/L.

`CCc1c2c(nc3ccc(O)c(CN4CCC4)c13)-c1cc3c(c(=O)n1[C@@H]2CO)COC(=O)[C@]3(O)CC` [Compound 7, 5-(S)-hydroxymethyl-7-ethyl-9-(N-azetidinyl)methyl-10-hydroxycamptothecin]: the IC50 in the test on MCF7 was 6.7 µmol/L; in the test on HT29, 2.5 µmol/L; in the test on HL60 (setting [1]), 0.11 µmol/L; in the test with A549, 1.17 µmol/L; in the test with CRL1790 it was greater than 1000 µmol/L.

Consider `CCc1c2c(nc3ccc(O)c(CN4CCC4)c13)-c1cc3c(c(=O)n1C2)COC(=O)C3(O)CC` (centres unmarked) [CC1, (N-azetidinyl)methyl-7-ethyl-10-hydroxycamptothecin, reference compound], for which the IC50 in the test on MCF7 stood at 0.99 µmol/L; in the test on HT29, 0.07 µmol/L; in the test on HL60 (setting [1]), 0.012 µmol/L; in the test with A549, 0.071 µmol/L.

As to `C=c1c2c(CC)c3cc(O)ccc3nc2c2cc3c(c(=O)n12)COC(=O)C3(O)CC` (centres unmarked) [Compound 5, 5-methylidene-7-ethyl-10-hydroxycamptothecin], the IC50 in the test on HT29 was 0.15 µmol/L; in the test with A549, 1.94 µmol/L.

In the case of `CCc1c2c(nc3ccc(O)c(CN4CCC4)c13)-c1cc3c(c(=O)n1[C@H]2CO)COC(=O)C3(O)CC` (stereo partly drawn) [Compound 6, 5-(R)-hydroxymethyl-7-ethyl-9-(N-azetidinyl)methyl-10-hydroxycamptothecin], the IC50 with MCF7 was 11.1 µmol/L; in the test on HT29, 6.98 µmol/L; with HL60 (setting [1]), 0.33 µmol/L; in the test on A549 it was 5.22 µmol/L; with CRL1790, greater than 1000 µmol/L.

With `CCc1c2c(nc3ccc(O)c(CN4CCCC4)c13)-c1cc3c(c(=O)n1C2)COC(=O)C3(O)CC` (centres unmarked) [CC2, (N-pyrrolidinyl)methyl-7-ethyl-10-hydroxycamptothecin, reference compound], the IC50 in the test with MCF7 worked out at 1.43 µmol/L; in the test on HT29 it was 0.24 µmol/L; in the test with HL60 (no unit or cell line printed, values match the HL60 line of Table 1, read-out: IC50), 0.014 µmol/L; in the test on A549, 0.083 µmol/L.

`CCc1c2c(nc3ccc(O)cc13)-c1cc3c(c(=O)n1[C@H]2CN1CCCC1)COC(=O)[C@]3(O)CC` [Compound 1, 5-(R)—(N-pyrrolidinyl)methyl-7-ethyl-10-hydroxycamptothecin]: the IC50 with MCF7 was 0.81 µmol/L; with HT29, 0.6 µmol/L; in the test with HL60 (setting [1]) it was 0.011 µmol/L; in the test on A549 it was 0.204 µmol/L.

On to `CCc1c2c(nc3ccc(O)cc13)-c1cc3c(c(=O)n1[C@@H]2CO)COC(=O)[C@]3(O)CC` [Compound 4, 5-(S)-hydroxymethyl-7-ethyl-10-hydroxycamptothecin], for which the IC50 stood at 14.9 µmol/L in the test with MCF7, 14.8 µmol/L in the test on HT29, 1.89 µmol/L in the test on HL60 (setting [1]) and 6.54 µmol/L in the test on A549.

Regarding `CCc1c2c(nc3ccc(O)cc13)-c1cc3c(c(=O)n1[C@H]2CO)COC(=O)C3(O)CC` (stereo partly drawn) [Compound 3, 5-(R)-hydroxymethyl-7-ethyl-10-hydroxycamptothecin], the IC50 with MCF7 worked out at 15.9 µmol/L; in the test on HT29, 9.48 µmol/L; in the test on HL60 (setting [1]), 0.72 µmol/L; with A549 it was 4.27 µmol/L.

On to `CCc1c2c(nc3ccc(O)cc13)-c1cc3c(c(=O)n1C2)COC(=O)[C@]3(O)CC` [SN38, 7-ethyl-10-hydroxycamptothecin], for which the IC50 was determined as 0.66 µmol/L in the test with MCF7; 0.02 µmol/L with HT29; 0.002 µmol/L in the test with HL60 (setting [1]); 0.028 µmol/L in the test on A549; 4.98 µmol/L with CRL1790.
